Measurements taken from patent US10906904B2, “ADO-resistant cysteamine analogs and uses thereof” (HORIZON ORPHAN LLC, priority 2015, dated 2021).
Where two headings read alike, the source gives them in different places.

Key:
Cystine reactivity assay [1] = test: Cystine reactivity assay; set-up: Cystine Reactivity: unit not given here; details: for Cystine Reactivity Assay (30° C.) (%) Mean Value: percentage of 3 mM cysteamine
Procedure: Cystine reactivity was assessed by incubating 3 mM test compound with 100 nM BODIPY® FL L-Cystine (Life Tech.) at 30° C., pH 7.4 in phosphate buffer. […] Compound cystine reactivity was expressed as a percentage of that of 3 mM cysteamine.
Under resting conditions, the inherent fluorescence of BODIPY® FL L-cystine was very low due to the spatial proximity of the two BODIPY molecules causing quenching. Under chemical reaction (disruption of the S—S bond), the spatial distance was increased, the quenching lost, and measured fluorescence increased. Time (minutes) vs. fluorescence (relative fluorescence units—RFU) was plotted and linear regression analysis was performed to generate a slope value corresponding to the reaction rate in RFU/min and an R2 value.

St-HdhQ^111/111 cells = test: Glutamate-induced neuronal excitotoxicity assay; format: cell-based; details: STHdhQ111, 6 mM L-glutamate 24 hours, % of effect of 100 μM cysteamine
Procedure: The ability of test compounds to inhibit glutamate-induced excitotoxicity (neuroprotection) in St-HdhQ^111/111 cells was determined by incubating compounds with cells for 60 min at 33° C., 95% (v:v) air/5% (v:v) CO2 in Dulbecco's Modified Eagle Media. Following this, excitotoxicity was induced by the addition of 6 mM L-glutamate for 24 hours. Cell viability was assessed by measuring ATP levels using a luminescent-based CellTitre Glo assay (Promega). Compound neuroprotection (% cell survival) was expressed as a % of the effect recorded with 100 μM cysteamine (denoted as 100% cell survival).

[2] = Dimethyl sulfide (DMS) detection in rat whole blood following oral compound administration; format: in vivo; details: male, Sprague Dawley, rat, in vivo, po, 150 mg/kg
Procedure: Male Sprague Dawley (SD) rats (200-250 g) were housed in cages under a 12 hour light/dark cycle with free access to food and water. Temperature and humidity were controlled according to UK Home Office regulations. For oral (po) administration, test compounds were formulated in water at a concentration of 30 mg/mL, to provide a dose of 150 mg/kg when administered orally in a 5 mL/kg dosing volume. Following compound or water (vehicle) administration to rats (n=15 per compound), terminal blood samples (>5 mL) were taken by cardiac puncture under CO2 at defined time-points post oral dosing (pre-dose, 0.25 hour, 0.5 hour, 1 hour and 2 hour). Blood was placed in sealed heparinized Eppendorf tubes on wet ice and stored at 4° C. prior to analyzing DMS levels by gas chromatography (GC).
For each sample of rat blood, 1 mL was added to an evacuated 20 mL GC-Headspace vial containing tetrahydrofuran (THF) internal standard. Headspace vials were sealed with a crimp cap and septum (to prevent the vaporization of volatile sulfur compounds into the open air) and thoroughly vortex mixed. All samples were processed using gas chromatography to measure DMS levels. In short, sulfur containing compounds were thermally liberated into the gas carrier stream and injected (1 μL) into the gas chromatography column (30 m×0.32 mm DB-624 1.8 μm). Under these conditions, the retention time for dimethyl sulfide (DMS) and THF internal standard were approximately 1.83 minutes and 3.82 minutes respectively.
For each analyzed blood sample, the ratio of DMS peak area to THF peak area was calculated. For the DMS calibration curve and assay linearity checks, this ratio was graphically plotted against the concentration of reference DMS standards (blank, 60 nM, 180 nM, 360 nM, 600 nM, 1200 nM, 1800 nM and 3000 nM). The concentration of DMS in each blood sample was calculated from the equation produced by this plot by linear regression analysis. […].

[3] = test system: cystinotic human fibroblasts; test: Cystine depletion assay; format: cell-based; details: for Emax: Homo sapiens, Fibroblast, 1 h; for Emax / Cystine Depletion (%): relative to cystine depletion by cysteamine (100%) at a similar concentration; for cystine depletion levels (in words): compared to cysteamine; for Cystine depletion: compound at 50 μM or 100 μM, Tables 1-3
Procedure: The ability of test compounds to deplete cystine from cystinotic human fibroblasts (Coriell) was determined by incubating compounds with cells for 60 min at 37° C., 95% (v/v) air/5% (v/v) CO2 in Minimal Essential Media Eagle. Treated cell samples were subsequently harvested, then homogenized to ensure plasma and lysosomal membrane disruption. Protein was removed by acid precipitation and cystine in the supernatant measured using LC-MS/MS and HILIC chromatography. Protein levels were determined and cystine levels reported as nM per mg/ml protein. Cystine levels after test compound treatment were expressed as a percentage of that of untreated control cells.
Compounds were assayed at a concentration of 50 μM or 100 μM according to the general methods described above.
Cystine depletion levels for the compounds are expressed in Table 4 as a percent relative to the cystine depletion achieved by cysteamine (c.f. cysteamine 100%) at a similar concentration.
Cystine depletion levels for each of the compounds in Table 5 are expressed as a percent relative to the cystine depletion achieved by cysteamine (c.f. cysteamine 100%) at a similar concentration.

human recombinant ADO = biological target: T1, human recombinant ADO (Homo sapiens, UniProt Q96SZ5); format: in vitro ADME
T1 sequence (Q96SZ5 1-270): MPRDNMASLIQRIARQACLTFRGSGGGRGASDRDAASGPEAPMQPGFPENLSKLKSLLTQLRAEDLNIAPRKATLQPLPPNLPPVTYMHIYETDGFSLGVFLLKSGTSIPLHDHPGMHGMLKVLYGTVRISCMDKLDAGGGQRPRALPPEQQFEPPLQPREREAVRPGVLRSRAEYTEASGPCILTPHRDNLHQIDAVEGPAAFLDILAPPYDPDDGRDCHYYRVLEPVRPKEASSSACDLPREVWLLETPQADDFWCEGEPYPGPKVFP
Procedure: The rate of ADO metabolism was determined by incubating 15 mM test compound with 60 μg/ml human recombinant ADO and 20 nM MitoXpress® O2-sensitive fluorescent probe (Luxcel) at 37° C. in assay buffer/salt in a sealed assay chamber. The initial rate of fluorescence (excitation λ380 nm and emission λ650 nm) increase was used to measure ADO-dependent oxygen depletion activity. The ability of ADO to metabolize compounds and concomitantly consume oxygen was expressed relative to that of 15 mM cysteamine.

[4] = Rodent pharmacokinetic assay (mouse); details: plasma, 10 mg
Procedure: (§1) Pharmacokinetic parameters of a test compound in a rodent species (mouse and/or rat) were determined by administering a test compound at 2 and 10 mg free base equivalents per kg via the intravenous and oral gavage route to groups of three animals per route.
(§2) Blood samples were taken at various times after administration, plasma prepared, and submitted to analysis for parent drug using a qualified LC-MS-MS assay. Pharmacokinetics parameters derived from the plasma analytical data were determined using non-compartmental analysis.

[5] = test system: cryopreserved rat hepatocytes; test: Rat hepatocyte stability assay
Procedure: Rat hepatocytes were used to model in vivo hepatic clearance of the compounds by the ADO enzyme. Briefly, a Hepatocyte Stability Assay was carried out using cryopreserved rat hepatocytes.

[6] = Rodent pharmacokinetic assay (rat); format: in vivo; details: 2 and 10 mg free base equivalents per kg, intravenous and oral gavage
Procedure: as §1, §2

Cystine reactivity assay [7] = details: Table 4
[8] = Table 4, read-out: Cystine Depletion (%)

Structure (SMILES): SC[C@@H]1CCCN1 (stereo in doubt) [Compound 42210]
- Cystine Reactivity Assay (30° C.) (%) Mean Value (Cystine reactivity assay [1]; Table 4): >90%
- Cystine Reactivity Assay (30° C.) (%) Mean Value (Cystine reactivity assay [1]; Table 5): >90%
- viability at 10 µM (St-HdhQ^111/111 cells; 10 μM, read-out: HdhQ^111/111 cell % survival (mean ± STD) Test Conc. 10 μM): 7 ± 6%
- viability at 100 µM (St-HdhQ^111/111 cells; 100 μM, read-out: HdhQ^111/111 cell % survival (mean ± STD) Test Conc. 100 μM): 105 ± 8%
- Mean DMS levels (nM) ± STD, Time 1 hr ([2]; 1 h): <60 nM
- Mean DMS levels (nM) ± STD, Time 2 hr ([2]; 2 h): <60 nM
- Emax [3, 8]: 87%
- Emax ([3]; Table 5, read-out: Cystine Depletion (%) Mean Value): 89%
- ADO Metabolism Assay (%) Mean Value (human recombinant ADO; human, 15 mM): <25%

Structure (SMILES): SC1CCNCC1 [Compound 2c]
- half-life [4]: 7.1 h
- bioavailability ([4]; oral): 74%
- cystine depletion levels (in words) [3]: slightly decreased
- Cystine depletion [3]: 73%
- metabolism by ADO compared to cysteamine (in words) (human recombinant ADO): significantly reduced metabolism by ADO compared to cysteamine
- ADO metabolism (human recombinant ADO; human, 15 mM): 2%

Structure (SMILES): CC(N)CS (stereo not drawn) [Compound 3c]
- Cystine Reactivity (Cystine reactivity assay [1]; Tables 1-3): 7733
- reactivity with cystine compared to cysteamine (in words) (Cystine reactivity assay [1]; text summary of Tables 1-3): increased reactivity with cystine compared to cysteamine
- Rat Hepatocytes CLint [5]: 29500 µL/min/mg
- Rat PK Bioavailability [6]: 23%
- Rat PK-Half life [6]: 0.8 h
- cystine depletion levels (in words) [3]: similar
- Cystine depletion [3]: 97%
- metabolism by ADO compared to cysteamine (in words) (human recombinant ADO): significantly reduced metabolism by ADO compared to cysteamine

Structure (SMILES): CC(=O)NCCS [Compound 17287]
- Cystine Reactivity Assay (RT) (RFU) Mean Value (Cystine reactivity assay [7]): <4000 RFU
- ADO Metabolism Assay (%) Mean Value (human recombinant ADO; human, 15 mM): <25%

Structure (SMILES): SCCN1CCOCC1 [Compound 17328]
- Cystine Reactivity Assay (RT) (RFU) Mean Value (Cystine reactivity assay [7]): <4000 RFU
- Emax [3, 8]: 13%
- ADO Metabolism Assay (%) Mean Value (human recombinant ADO; human, 15 mM): <25%

Structure (SMILES): NCCCS [Compound 17329]
- Cystine Reactivity Assay (RT) (RFU) Mean Value (Cystine reactivity assay [7]): <4000 RFU
- Cystine Depletion (%) ([3]; Table 4): 36%

Structure (SMILES): CC(S)CN (stereo not drawn) [Compound 17330]
- Cystine Reactivity Assay (RT) (RFU) Mean Value (Cystine reactivity assay [7]): 4000-9000 RFU

Structure (SMILES): CC(N)CS (stereo not drawn) [Compound 17515]
- Cystine Reactivity Assay (RT) (RFU) Mean Value (Cystine reactivity assay [7]): 4000-9000 RFU
- Cystine Depletion (%) ([3]; Table 4): 97%
